Assays:
Format in all cases: in vivo, human
[1] = test system: cancer patients; experiment: Composite desire for hastened death (DHD) score (5 loss-of-meaning items of the Demoralization Scale), crossover trial with psychotherapy; details: for DHD within-subjects reduction relative to baseline: combined groups
Protocol: (§1) 29 participants were randomly assigned to one of two groups: psilocybin (0.3 mg/kg) on the first medication session followed by niacin (250 mg) on the second session (i.e. psilocybin-first group), or niacin (250 mg) on the first medication session followed by psilocybin (0.3 mg/kg) on the second session (i.e. niacin-first group). Psilocybin and niacin were administered in identically appearing gelatin capsules.
(§2) Participants received three 2-hour preparatory psychotherapy sessions in order to review the purpose and intention of participation in the study, treatment goals, and structure of the treatment sessions. Medications were administered in 8-hour treatment sessions which included a discussion of the participant's subjective experience with the treatment team to consolidate the memory of the experience and to begin the process of post-integrative psychotherapy. Participants also received three 2-hour post-medication integration sessions (repeated after the second dosing session) to further consolidate the memory of the experience and to continue the process of psychological integration. All psychotherapy treatment sessions were delivered by a dyadic therapy team trained in a blend of psychotherapies with an evidence base to support their use in cancer patients (drawing upon principles of palliative care therapy, existential psychotherapy, cognitive-behavioural therapy, psychoanalysis therapy, and transpersonal psychology) and were taught about the safety and clinical pharmacology of psilocybin. Each therapy dyad underwent six confidential one-to-one sessions to build their alliance and exchange ideas about psychedelic therapy. The trial employed a crossover design at seven weeks following the first drug administration, with an outcome assessment at 6.5 months (26 weeks) following the second drug administration (i.e. after the crossover).
(§3) Two long-term follow ups (LTFUs) were carried out to assess the continued effect of psilocybin.
(§4) Primary outcomes (suicidal ideation and desire for hastened death) were measured according to the following methods: • Beck Depression Inventory-II (BDI-II) (Beck et al., 1988)— this is a widely used self-report measure to assess depression. The BDI-II comprises 21 questions related to depressive symptoms experienced over the previous two weeks, and is rated on a […] (total score ranges from 0-63). Scores greater than 12 correlate with clinical depression. […] Item #9 on the BDI queries suicidal ideation with the following options: 0=I don't have any thoughts of killing myself; 1=I have thoughts of killing myself, but I would not carry them out; 2=I would like to kill myself; 3=I would kill myself if I had the chance. The BDI-II was assessed at baseline, 1-day prior to dose-1, 8-hours after dose-1, 1-day after dose-1, 2-weeks after dose-1, 6-weeks after dose-1, 7-weeks after dose-1 (corresponding to 1-day prior to dose-2), 1-day after dose-2, 6-weeks after dose-2, 26-weeks after dose-2, and at the 3.2 year and 4.5 year LTFU assessments. • The Brief Symptom Inventory (BSI) (Derogatis 1993) is a 53-item self-report questionnaire that assesses a range of psychiatric symptoms, generating 9 domains (depression, anxiety, phobic anxiety, somatization, obsession-compulsion, interpersonal sensitivity, hostility, paranoid ideation, psychoticism) and a global severity index.

[2] = test system: cancer patients; experiment: Composite suicidal ideation (SI) score (BDI-II item #9 + BSI item #9, T-scores), crossover trial with psychotherapy; details: for Composite SI within-subject effect size relative to baseline, Cohen's d: psilocybin-1st group
Protocol: as §1, §2, §3, §4

[3] = test system: cancer patients; experiment: Primary outcomes DHD and SI taken together: within-subject effect sizes across measures and time points
Protocol: as §1
Participants received three 2-hour preparatory psychotherapy sessions in order to review the purpose and intention of participation in the study, treatment goals, and structure of the treatment sessions. Medications were administered in 8-hour treatment sessions which included a discussion of the participant's subjective experience with the treatment team to consolidate the memory of the experience and to begin the process of post-integrative psychotherapy. […]
Primary outcomes (suicidal ideation and desire for hastened death) were measured according to the following methods: • Beck Depression Inventory-II (BDI-II) (Beck et al., 1988)— this is a widely used self-report measure to assess depression. […] It is measured on a Likert scale: 0=Not at all; 1=Little, 2=Moderately; 3=Quite a bit; 4=Extremely. […]

[4] = after crossover, both dose-sequence groups combined, 6.5-month follow-up, p<0.001

| SMILES | Composite DHD score, main effect of time within group ([1]; niacin-1st group (250 mg), prior to the crossover, p=0.079, n=5) | Composite suicidality/SI score, main effect of time within group ([2]; niacin-1st group (250 mg), prior to the crossover, p=0.065, n=5) | Within-subjects effect sizes across DHD and SI and time points, Cohen's d range ([3]; after crossover, combined groups, 6.5 months to 4.5 years) | Within-subject effect sizes across DHD and SI and time points, Cohen's d range ([3]; psilocybin-1st group, pre-crossover, statistically significant reductions) | DHD mean score relative to baseline, within psilocybin-1st group ([1]; 2-weeks post dose-1, pre-crossover, p=0.005, n=6) | DHD between-group difference, psilocybin-1st vs niacin-1st, Cohen's d ([1]; 2-weeks post dose-1, pre-crossover, psilocybin 0.3 mg/kg single dose, n=6 vs n=5) | DHD within-subjects change relative to baseline [1, 4] | DHD within-subjects reduction relative to baseline ([1]; after crossover, 3.2-year follow-up, p<0.001) | DHD within-subjects reduction relative to baseline ([1]; after crossover, 4.5-year follow-up, p<0.001) | Composite SI within-subjects change relative to baseline [2, 4] | Composite SI, between-group comparison psilocybin-1st vs niacin-1st ([2]; prior to the crossover, psilocybin 0.3 mg/kg, interaction p=0.065, group p=0.614) | Composite SI within-subject effect size relative to baseline, Cohen's d ([2]; 2-weeks post-dose 1, p<0.001) | Composite SI within-subject effect size relative to baseline, Cohen's d ([2]; 7-weeks post-dose 1, p<0.001) | Composite SI within-subject effect size relative to baseline, Cohen's d ([2]; 8-hours post-dose 1, p<0.001) |
| --- | --- | --- | --- | --- | --- | --- | --- | --- | --- | --- | --- | --- | --- | --- |
| O=C(O)c1cccnc1 [niacin] | no significant main effect of time | no significant main effect of time |  |  |  |  |  |  |  |  |  |  |  |  |
| CN(C)CCc1c[nH]c2cccc(OP(=O)(O)O)c12 [psilocybin, [3-(2-dimethylaminoethyl)-1H-indol-4-yl] dihydrogen phosphate] |  |  | 1.51-2.56 | 1.20-3.50 | differed significantly | 1.32 | statistically significant within-subjects reductions | remained significant | remained significant | statistically significant within-subjects reductions | no significant differences between the two groups | 2.40 | 3.50 | 2.40 |

From patent US20240075009A1, “TREATMENT OF S[…] PSILOCIN OR PSILOCYBIN” (NEW YORK UNIVERSITY, priority 2021, published 2024)
